Results reported in ChEMBL document CHEMBL1140602, “A simple, yet highly accurate, QSAR model captures the complement inhibitory activity of compstatin” (Bioorg Med Chem, 2007).
Positions of bridges follow the written chain, without caps; N, C: chain ends. Non-standard residues stand in square brackets, D forms with d. Residues, ends and D or L forms follow the SMILES beside them. Abu = CC[C@H](N)C(=O)O

assay: Inhibition of C3b activation relative to compstatin

Row | SMILES | logIC50
1 | CC[C@H](C)[C@H](NC(=O)[C@@H]1CSSC[C@H](NC(=O)[C@@H](NC(C)=O)[C@@H](C)CC)C(=O)N[C@@H](C(C)C)C(=O)N[C@@H](C(C)C)C(=O)N[C@@H](CCC(N)=O)C(=O)N[C@@H](CC(=O)O)C(=O)N[C@@H](Cc2c[nH]c3ccccc23)C(=O)NCC(=O)N[C@@H](Cc2cnc[nH]2)C(=O)N[C@@H](Cc2cnc[nH]2)C(=O)N[C@@H](CCCNC(=N)N)C(=O)N1)C(N)=O (Ac-ICVVQDWGHHRCI-NH2; disulfide 2-12) | 0.574
2 | CC[C@@H]1NC(=O)CNC(=O)[C@H](Cc2c[nH]c3ccccc23)NC(=O)[C@H](CC(=O)O)NC(=O)[C@H](CCC(N)=O)NC(=O)[C@H](Cc2c[nH]c3ccccc23)NC(=O)[C@H](C(C)C)NC(=O)[C@@H](NC(=O)[C@@H](NC(C)=O)[C@@H](C)CC)CSSC[C@@H](C(=O)N[C@H](C(N)=O)[C@@H](C)O)NC(=O)[C@H](CCCNC(=N)N)NC(=O)[C@H](Cc2cnc[nH]2)NC1=O (Ac-ICVWQDWG[Abu]HRCT-NH2; disulfide 2-12) | 1.55
3 | CSCC[C@H](NC(C)=O)C(=O)N[C@H]1CSSC[C@@H](C(=O)N[C@@H](Cc2ccccc2)C(N)=O)NC(=O)[C@H](CCCNC(=N)N)NC(=O)[C@H](Cc2cnc[nH]2)NC(=O)CNC(=O)CNC(=O)[C@H](Cc2c[nH]c3ccccc23)NC(=O)[C@H](CC(=O)O)NC(=O)[C@H](CCC(N)=O)NC(=O)[C@H](Cc2cnc[nH]2)NC(=O)[C@H](C(C)C)NC1=O (Ac-MCVHQDWGGHRCF-NH2; disulfide 2-12) | -0.863
4 | CC(=O)N[C@@H](CCCNC(=N)N)C(=O)N[C@H]1CSSC[C@@H](C(=O)N[C@H](C(N)=O)[C@@H](C)O)NC(=O)[C@H](CCCNC(=N)N)NC(=O)[C@H](Cc2cnc[nH]2)NC(=O)[C@H](Cc2cnc[nH]2)NC(=O)CNC(=O)[C@H](Cc2c[nH]c3ccccc23)NC(=O)[C@H](CC(=O)O)NC(=O)[C@H](CCC(N)=O)NC(=O)[C@H](C(C)C)NC(=O)[C@H](C(C)C)NC1=O (Ac-RCVVQDWGHHRCT-NH2; disulfide 2-12) | 0.176
5 | CC(C)[C@@H]1NC(=O)[C@H](C(C)C)NC(=O)[C@@H](N)CSSC[C@@H](C(=O)O)NC(=O)[C@H](CCCNC(=N)N)NC(=O)[C@H](Cc2cnc[nH]2)NC(=O)[C@H](C)NC(=O)CNC(=O)[C@H](Cc2c[nH]c3ccccc23)NC(=O)[C@H](CC(=O)O)NC(=O)[C@H](CCC(N)=O)NC1=O (H-CVVQDWGAHRC-OH; disulfide 1-11) | -0.097
6 | CC(C)[C@@H]1NC(=O)[C@H](C(C)C)NC(=O)[C@@H](N)CSSC[C@@H](C(=O)O)NC(=O)[C@H](CCCNC(=N)N)NC(=O)[C@H](C)NC(=O)[C@H](Cc2cnc[nH]2)NC(=O)CNC(=O)[C@H](Cc2c[nH]c3ccccc23)NC(=O)[C@H](CC(=O)O)NC(=O)[C@H](CCC(N)=O)NC1=O (H-CVVQDWGHARC-OH; disulfide 1-11) | -0.79
7 | CC(C)[C@@H]1NC(=O)[C@H](C(C)C)NC(=O)[C@@H](N)CSSC[C@@H](C(=O)O)NC(=O)[C@H](C)NC(=O)[C@H](Cc2cnc[nH]2)NC(=O)[C@H](Cc2cnc[nH]2)NC(=O)CNC(=O)[C@H](Cc2c[nH]c3ccccc23)NC(=O)[C@H](CC(=O)O)NC(=O)[C@H](CCC(N)=O)NC1=O (H-CVVQDWGHHAC-OH; disulfide 1-11) | -0.767
8 | CC(C)[C@@H]1NC(=O)[C@H](C(C)C)NC(=O)[C@@H](N)CSSC[C@@H](C(N)=O)NC(=O)[C@H](CCCNC(=N)N)NC(=O)[C@H](Cc2cnc[nH]2)NC(=O)[C@H](Cc2cnc[nH]2)NC(=O)CNC(=O)[C@H](Cc2c[nH]c3ccccc23)NC(=O)[C@H](CC(=O)O)NC(=O)[C@H](CCC(N)=O)NC1=O (H-CVVQDWGHHRC-NH2; disulfide 1-11) | -0.439
9 | CC(C)[C@@H]1NC(=O)[C@H](C(C)C)NC(=O)[C@@H](N)CSSC[C@@H](C(=O)O)NC(=O)[C@H](CCCNC(=N)N)NC(=O)[C@H](Cc2cnc[nH]2)NC(=O)[C@H](Cc2cnc[nH]2)NC(=O)CNC(=O)[C@H](Cc2c[nH]c3ccccc23)NC(=O)[C@H](CC(=O)O)NC(=O)[C@H](CCC(N)=O)NC1=O (H-CVVQDWGHHRC-OH; disulfide 1-11) | -0.439
10 | CC(C)[C@@H]1NC(=O)[C@H](C(C)C)NC(=O)[C@@H](N)CSSC[C@@H](C(=O)N[C@H](C(N)=O)[C@@H](C)O)NC(=O)[C@H](CCCNC(=N)N)NC(=O)[C@H](Cc2cnc[nH]2)NC(=O)[C@H](Cc2cnc[nH]2)NC(=O)CNC(=O)[C@H](Cc2c[nH]c3ccccc23)NC(=O)[C@H](CC(=O)O)NC(=O)[C@H](CCC(N)=O)NC1=O (H-CVVQDWGHHRCT-NH2; disulfide 1-11) | -0.319
11 | CC(C)[C@@H]1NC(=O)[C@@H](NC(=O)[C@@H](N)CC(=O)O)CSSC[C@@H](C(=O)N[C@H](C(N)=O)[C@@H](C)O)NC(=O)[C@H](CCCCN)NC(=O)[C@H](Cc2cnc[nH]2)NC(=O)[C@H](Cc2cnc[nH]2)NC(=O)CNC(=O)[C@H](Cc2c[nH]c3ccccc23)NC(=O)[C@H](CC(=O)O)NC(=O)[C@H](CCC(N)=O)NC(=O)[C@H](C(C)C)NC1=O (H-DCVVQDWGHHKCT-NH2; disulfide 2-12) | -0.264
12 | CC[C@H](C)[C@H](N)C(=O)N[C@H]1CSSC[C@@H](C(=O)N[C@H](C(N)=O)[C@@H](C)O)NC(=O)[C@H](CCCCN)NC(=O)[C@H](Cc2cnc[nH]2)NC(=O)[C@H](Cc2cnc[nH]2)NC(=O)CNC(=O)[C@H](Cc2c[nH]c3ccccc23)NC(=O)[C@H](CC(=O)O)NC(=O)[C@H](CCC(N)=O)NC(=O)[C@H](C(C)C)NC(=O)[C@H](C(C)C)NC1=O (H-ICVVQDWGHHKCT-NH2; disulfide 2-12) | -0.226
13 | CC(C)C[C@H](N)C(=O)N[C@H]1CSSC[C@@H](C(=O)NCC(N)=O)NC(=O)[C@H](CCCNC(=N)N)NC(=O)[C@H](Cc2cnc[nH]2)NC(=O)[C@H](Cc2c[nH]c3ccccc23)NC(=O)CNC(=O)[C@H](Cc2c[nH]c3ccccc23)NC(=O)[C@H](CC(=O)O)NC(=O)[C@H](CCC(N)=O)NC(=O)[C@H](C(C)C)NC(=O)[C@H](C(C)C)NC1=O (H-LCVVQDWGWHRCG-NH2; disulfide 2-12) | 0.617
14 | CC(C)C[C@@H]1NC(=O)[C@H](CCCNC(=N)N)NC(=O)CNC(=O)[C@H](Cc2c[nH]c3ccccc23)NC(=O)[C@H](CC(=O)O)NC(=O)[C@H](CCC(N)=O)NC(=O)[C@H](Cc2ccccc2)NC(=O)[C@H](C(C)C)NC(=O)[C@@H](NC(=O)[C@@H](N)CO)CSSC[C@@H](C(=O)N2CCC[C@H]2C(N)=O)NC(=O)[C@H](C)NC1=O (H-SCVFQDWGRLACP-NH2; disulfide 2-12) | -0.301
